# Assay results published in patent publication US20220267260A1, “COMPOUNDS CONTAINING A SULFONIC GROUP AS KAT INHIBITORS” (Epizyme, Inc., priority 2016, published 2022).
# What was measured:
# KAT6A = target: T1, KAT6A (Homo sapiens, UniProt Q92794); assay: KAT6A enzyme inhibition assay (SAMDI mass spectrometry); type: biochemical; details: His-TEV-KAT6A 501-784 enzyme construct
# T1 construct: His-TEV tag (N, cleaved yes); made in house
# KAT5 = target: T2, KAT5 (Homo sapiens, UniProt Q92993); assay: KAT5 enzyme inhibition assay (SAMDI mass spectrometry); type: biochemical; details: His-TEV-FL KAT5-Flag enzyme construct
# T2 construct: His-TEV tag (N, cleaved yes); made in house
# T2 sequence (Q92993 with tags, fused parts or gaps): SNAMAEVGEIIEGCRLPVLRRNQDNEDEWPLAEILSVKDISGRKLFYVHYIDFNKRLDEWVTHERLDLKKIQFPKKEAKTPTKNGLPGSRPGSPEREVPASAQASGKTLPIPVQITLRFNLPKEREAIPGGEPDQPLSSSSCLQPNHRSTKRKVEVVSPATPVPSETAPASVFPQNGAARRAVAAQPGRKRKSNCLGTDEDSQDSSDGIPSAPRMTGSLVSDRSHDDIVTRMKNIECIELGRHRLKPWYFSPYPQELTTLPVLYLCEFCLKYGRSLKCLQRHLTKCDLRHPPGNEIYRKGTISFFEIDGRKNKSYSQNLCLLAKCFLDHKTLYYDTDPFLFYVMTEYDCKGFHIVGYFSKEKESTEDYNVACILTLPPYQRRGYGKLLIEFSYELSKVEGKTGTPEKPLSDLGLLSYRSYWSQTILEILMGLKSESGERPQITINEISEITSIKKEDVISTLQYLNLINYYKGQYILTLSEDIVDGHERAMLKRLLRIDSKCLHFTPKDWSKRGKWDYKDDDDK
# T1 sequence (Q92794 with tags, fused parts or gaps): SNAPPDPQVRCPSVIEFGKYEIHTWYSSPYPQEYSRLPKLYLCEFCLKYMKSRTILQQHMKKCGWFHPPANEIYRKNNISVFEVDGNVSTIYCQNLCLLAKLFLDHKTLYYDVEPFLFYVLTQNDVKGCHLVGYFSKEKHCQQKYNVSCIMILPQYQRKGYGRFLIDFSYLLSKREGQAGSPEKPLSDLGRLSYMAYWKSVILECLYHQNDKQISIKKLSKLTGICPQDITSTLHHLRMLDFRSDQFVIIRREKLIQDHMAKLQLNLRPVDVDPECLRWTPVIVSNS
SMILES,IC50 (KAT6A) [µM],IC50 (KAT5) [µM]
Cc1cc(-c2ccccc2)cc(C(=O)NNS(=O)(=O)c2ccccc2Cl)c1F [Compound I-263],≤ 10,≤ 10
O=C(NNS(=O)(=O)c1cccc(-c2ccccc2)c1)c1ccccc1 [Compound I-521],> 100,> 100
CC(C)C(Cc1ccccc1)C(=O)NNS(=O)(=O)c1ccccc1 (centres unmarked) [Compound I-260],> 100,> 100
COc1ccccc1CN1CCC(S(=O)(=O)NNC(=O)c2cc(-c3ccccc3)cc(C)c2F)C1 (centres unmarked) [Compound I-25],10 to 50,10 to 50
Cc1cc(-c2ccccc2)cc(C(=O)NNS(=O)(=O)c2cccc(Cl)c2)c1F [Compound I-187],≤ 10,≤ 10
COCCC(=O)N1CCC(S(=O)(=O)NNC(=O)c2cc(-c3ccccc3)cc(C)c2F)CC1 [Compound I-109],10 to 50,10 to 50
"Cc1cc(-c2ccccc2)cc(C(=O)NNS(=O)(=O)C2CN(C(=O)OC(C)(C)C)C2)c1F [Compound I-119, tert-Butyl 3-((2-(4-fluoro-5-methyl-[1,1′-biphenyl]-3-carbonyl)hydrazinyl)sulfonyl)azetidine-1-carboxylate]",10 to 50,10 to 50
Cc1cc(-c2ccccc2)cc(C(=O)NNS(=O)(=O)C2CCN(C(C)C)CC2)c1F [Compound I-92],> 100,> 100
CCS(=O)(=O)N1CCCC(CS(=O)(=O)NNC(=O)c2cc(-c3cccc(C)c3)cc(Cl)c2F)C1 (centres unmarked) [Compound I-511],> 100,≤ 10
CCN1CCC(S(=O)(=O)NNC(=O)c2cc(-c3ccccc3)cc(C)c2F)CC1 [Compound I-91],50 to 100,10 to 50
Cc1cccc(-c2cccc(C(=O)NNS(=O)(=O)c3ccccc3)c2F)c1 [Compound I-229],10 to 50,10 to 50
Cc1cc(-c2ccccc2)cc(C(=O)NNS(=O)(=O)C2CCCC2)c1F [Compound I-19],10 to 50,≤ 10
O=C(NNS(=O)(=O)c1ccccc1)c1c(F)ccc(-c2ncc[nH]2)c1F [Compound I-264],50 to 100,> 100
Cc1cc(-c2ccccc2)cc(C(=O)NNS(C)(=O)=O)c1F [Compound I-1],10 to 50,50 to 100
Cc1cc(-c2cccc(F)c2)cc(C(=O)NNS(=O)(=O)CC2CCN(C(=O)CCN(C)C(=O)OC(C)(C)C)CC2)c1F [Compound I-327],≤ 10,≤ 10
CC(=O)N1CCOC(CS(=O)(=O)NNC(=O)c2cc(-c3ccccc3)cc(C)c2F)C1 (centres unmarked) [Compound I-427],≤ 10,≤ 10
Cc1cc(-c2cccc(Cl)c2)cc(C(=O)NNS(=O)(=O)c2ccccc2)c1F [Compound I-340],≤ 10,≤ 10
CNC(=O)CCNC(=O)c1cc(Cl)c(F)c(C(=O)NNS(=O)(=O)C2CCCCC2)c1 [Compound I-474],> 100,> 100
O=C(NNS(=O)(=O)CC1CCCCC1)c1cc(CO)cc(Cl)c1F [Compound I-457],≤ 10,≤ 10
Cc1cc(Cl)cc(C(=O)NNS(=O)(=O)C2CCCCC2)c1F [Compound I-299],50 to 100,10 to 50
Cc1nn(CC(=O)NCCO)c(C(=O)NNS(=O)(=O)C2CCCCC2)c1F [Compound I-504],> 100,> 100
Cc1c(-c2ccccc2)ccc(F)c1C(=O)NNS(=O)(=O)c1cccc(Cl)c1 [Compound I-128],10 to 50,50 to 100
O=C(NNS(=O)(=O)C1CCCCC1)c1cc(-c2cc(Cl)cc(Cl)c2)cc(Cl)c1F [Compound I-487],10 to 50,10 to 50
O=C(NNS(=O)(=O)C1CCOCC1)c1cc(C(=O)N2CCOCC2)cc(Cl)c1F [Compound I-439],> 100,> 100
Cc1cccc(S(=O)(=O)NNC(=O)c2cc(-c3ccccc3)cc(C)c2F)c1 [Compound I-188],≤ 10,≤ 10
